Measurements as given in PMC4912613, “A broad analysis of resistance development in the malaria parasite” (Nature Communications, 2016).
Like-named read-outs stand apart in the source and are kept apart here.

Assays:
[1] = system: 3D7; assay: Cross-resistance EC50 assay, 3D7 parent / sensitive strain; format: cell-based; conditions: Plasmodium falciparum
Text: Multidrug resistance alleles, including mutations in P. falciparum chloroquine resistance transporter (pfcrt) and P. falciparum multi-drug resistance transporter 1 (pfmdr1) are very common in field isolates. Therefore, we sought to assess the degree to which pre-existing resistance alleles would contribute to a loss of potency for this diverse collection of small molecule compounds. Fifteen clones derived from three main parent lines were chosen to maximize diversity in mutated pathways and genetic backgrounds, thus representing the variety of resistance seen in the field: 3D7 (ref. [23]), W2 (ref. [24]) or Dd2 (ref. [25]). The 3D7 line originates from the clone of a Netherlands clinical isolate strain[23][26] and is generally considered to be drug sensitive, though it does convey resistance to sulfadoxine. Conversely, W2 (ref. [24], [27]) and Dd2 (ref. [25]) are multi-drug-resistant lines originating from the Indochina III/CDC isolate, which contain point mutations in pfcrt as well as amplifications in pfmdr1 and GTP cyclohydrolase.
(§1) To evaluate potential overlapping activity against known antimalarial drug targets, we performed dose-response studies with each compound against our assembled set of drug-resistant lines and their corresponding parents, in an asexual blood stage proliferation assay (Table 1). Comparisons were made to the drug-sensitive strain 3D7 when a parent was unavailable (TM90C2A, W2 and Dd2). As laboratories conducted EC50 assays with different strains and protocols, all comparisons were made between assays from the same laboratory and under the same assay conditions. Compounds displaying >5-fold EC50 shifts relative to the parent or sensitive strain were flagged as having potentially non-novel targets. Average fold shifts per strain ranged from 0.82 to 2.34, with a median of 1.23 indicating there was not common resistance to any one resistant clone. No resistance patterns were observed when classifying the compounds based on chemical structure, but this was not surprising given the diversity of compounds chosen. On the other hand, given that these confirmed compounds were derived from larger unconfirmed hit lists to which some filtration criteria may have been applied (for example, elimination of obvious dihydrofolate reductase inhibitors[32]), some[10][11][12][13] pre-existing bias may exist in the set.
The 48-h assay was carried out in a 96-well format following standard methods using the ^3H-hypoxanthine incorporation assay. The raw EC50 values corresponding to this assay can be found in Supplementary Data 3. Briefly, this assay relies on the parasite incorporation of labelled hypoxanthine that is proportional to P. falciparum growth. A culture of parasitized RBCs (0.5% parasitemia with a percentage of ring stage higher than 70% of total parasitemia, 2.0% haematocrit) in RPMI-1640, […] and 5 μM hypoxanthine was exposed to drug serial dilutions. Plates were incubated for 24 h at 37 °C, 5% CO2, 5% O2 and 90% N2. After 24 h of incubation, ^3H-hypoxanthine was added and plates were incubated for an additional 24-h period. After that, parasites were harvested on a glass fibre filter using a TOMTEC Cell Harvester 96. Filters were dried and melt-on scintillator sheets were used to determine the incorporation of ^3H-hypoxanthine. Radioactivity was measured using a microbeta counter. Data were normalized using the incorporation of the positive (parasitized RBCs without drug) and negative (same culture with artesunate at 2 μM) controls. All assays were conducted in triplicate using three independently grown cultures, and EC50 values were determined using the XLfit add-in module for Excel (version 2.3.1) from Grafit (version 5.3.1.3), where parameter h is the assay hill slope, x is the compound concentration and y is the inhibition of growth effect. The XLfit equation is: […]
Alternatively, a SYBR Green-based proliferation approach was used for the 72-h assay, as previously described. […]

[2] = system: CYTbQi (cytb G33A, parent Dd2); assay: Cross-resistance EC50 assay, CYTbQi; format: cell-based; conditions: Plasmodium falciparum; SYBR green 72 hour assay; synchronized parasites; 384-well format; strain CYTbQi (Dd2 parent)
Text: as §1, with “set. […]” for “set.”
Alternatively, a SYBR Green-based proliferation approach was used for the 72-h assay, as previously described. Briefly, a culture of either synchronized or asynchronous parasitized RBCs (0.3% parasitemia and 4% haematocrit) in screening medium (identical to supplemented medium above except no serum was added) was exposed to serial drug dilutions. Plates were incubated at 37 °C and gassed with 93% N2, 4% CO2 and 3% O2 for 72 h. Following incubation, 10 × SYBR Green I (Invitrogen; supplied in 10,000 × concentration) in lysis buffer ([…], 5 mM EDTA, 0.16% Saponin wt per vol and 1.6% Triton X vol per vol) was added to the wells and the plates were incubated overnight at room temperature before plate reading. EC50 assays were repeated three times, taking the average EC50 value from each assay set, and removing any outliers using a single iteration of Grubbs' test, eliminating values with z-scores above the critical z-value (α=0.05). The raw EC50 values for synchronized parasites assayed in a 384-well format are listed in Supplementary Data 4. The raw EC50 values for asynchronous parasites assayed in a 96 or 1536-well format are listed in Supplementary Data 5.
EC50 values for each strain were compared with those of the corresponding parent strain to determine fold-shift changes and identify resistance. To minimize the cause variance between assays, all comparisons were conducted between strains assayed under identical conditions. A one-way ANOVA followed by a Dunnet's post-test was conducted in GraphPad Prism to identify significant changes between the parent and resistant strain.

[3] = SYBR green 72 hour assay, asynchronized parasites, 96-well or 1536-well format, 3D7 parent, read-out: 3D7 (PARENT) EC50 (µM) Average EC50
[4] = SYBR green 72 hour assay, synchronized parasites, 384-well format, strain 3D7 (parent), read-out: 3D7 (PARENT) Average EC50
[5] = hypoxanthine 48-hour assay, synchronized parasites, 96-well format, strain 3D7 (parent), read-out: 3D7 (PARENT) Average EC50
[6] = hypoxanthine 48-hour assay, synchronized parasites, 96-well format, strain 3D7-C9-WT (parent of PfATP4 Mut3), read-out: 3D7-C9-WT (PARENT) Average EC50

Structure (SMILES) | EC50 [1, 3] [µM] | EC50 [1, 4] [µM] | EC50 [1, 5] [µM] | EC50 [1, 6] [µM] | EC50 [2] [nM] | EC50 ([1]; 3D7, 48 h, read-out: 3D7 (PARENT) Average EC50) [µM] | EC50 ([1]; 3D7, 48 h, read-out: 3D7-C9-WT (PARENT) Average EC50) [µM] | EC50 ([1]; 3D7, 72 h, read-out: 3D7 (PARENT) Average EC50) [µM] | EC50 ([1]; 3D7, 72 h, read-out: 3D7 (PARENT) EC50 (µM) Average EC50) [µM]
Cc1ccc(S(=O)(=O)n2cc(-c3ccnc(N)c3)c3cc(Br)cnc32)cc1 [MMV024114] | 1.17 | 0.418 | 0.264 | 0.219 | 1380 | – | – | – | –
Cl.c1ccc2c(NCCCCCCNc3c4c(nc5ccccc35)CCCC4)c3c(nc2c1)CCCC3 [MMV019555] | – | – | – | – | 227 | 0.087 | 0.094 | 0.062 | 0.065
CCCN(CCC)CC(O)COc1ccccc1C(=O)Nc1ccccc1 (stereo not drawn) [MMV006455] | 0.148 | 2.43 | 0.529 | – | 200 | – | – | – | –
Cc1ccc(Cn2c(N3CCC(C(=O)NCc4cccs4)CC3)nc3ccccc32)cc1 [MMV007564] | 0.867 | 0.681 | 0.578 | 0.477 | 574 | – | – | – | –
Nc1ncc(-c2cn[nH]c2)cc1-c1nc2ccc(F)cc2[nH]1 [MMV023367] | 1.13 | 0.519 | 0.303 | 0.269 | 626 | – | – | – | –
O=C(NC(c1ccccc1)c1ccc2cccnc2c1O)c1ccccc1 (stereo not drawn) [MMV666080] | 0.723 | 0.682 | 0.845 | 3.92 | 1290 | – | – | – | –
CCCOCc1cc(CN2CCN(c3cccc(Cl)c3)CC2)c(O)c2ncccc12 [MMV000787] | 0.645 | 0.631 | 1.46 | 0.935 | 520 | – | – | – | –
Cc1ccc(Oc2ncccc2C(=O)Cc2cccc3cccnc23)c(C)c1 [MMV020746] | 0.993 | 0.096 | 0.074 | 0.093 | 268 | – | – | – | –
COC(=O)c1ccc(C2C3=C(O)CC(c4ccc(F)cc4)CC3=Nc3ccccc3N2C(=O)c2ccccc2)cc1 (stereo not drawn) [MMV011438] | 0.187 | 0.229 | 0.428 | 0.513 | 235 | – | – | – | –
CN(C)CCCN(C)C(=O)C1Cc2cc(-c3ccccc3)ccc2N1S(=O)(=O)c1ccccc1 (stereo not drawn) [MMV028895] | 0.625 | 0.049 | 0.081 | 0.052 | 740 | – | – | – | –
CN(C)S(=O)(=O)c1cc(-c2ccc3nccc(-c4cccc(S(N)(=O)=O)c4)c3c2)cnc1N [MMV024038] | 0.764 | 0.217 | 0.174 | 0.258 | 164 | – | – | – | –
COc1ccc(-c2nc(NC(=O)Cc3ccc4c(c3)OCCO4)sc2C)cc1 [MMV019719] | 0.236 | 0.2 | 0.165 | 0.132 | 245 | – | – | – | –
COCCNCC(O)Cn1c2ccc(Cl)cc2c2cc(Cl)ccc21 (stereo not drawn) [MMV019017] | 0.537 | 0.763 | 0.62 | – | 549 | – | – | – | –
CCOc1cc2c(cc1OCC)C(c1cc(Cl)ccc1O)NCC2 (stereo not drawn) [MMV000478] | 0.613 | 1.85 | 1.07 | 1.28 | 817 | – | – | – | –
COc1cc(-c2nc(-c3ccccc3)c(-c3ccccc3)[nH]2)cc(OC)c1O [MMV020750] | 0.575 | 0.597 | 0.342 | 0.656 | 927 | – | – | – | –
OC(CNC1CCCCC1)Cn1c2ccccc2c2ccccc21 (stereo not drawn) [MMV009063] | 0.281 | 0.464 | 0.785 | – | 257 | – | – | – | –
CCN(CC)S(=O)(=O)c1ccc(-c2csc(Nc3ccc(C)c(C)c3)n2)cc1 [MMV009108] | 0.851 | 0.759 | 0.93 | 1.11 | 416 | – | – | – | –
CC(C)(C)OC(=O)N1CCN(c2ccccc2NC(=O)c2cccc(C(F)(F)F)c2Oc2ccc(F)cc2)CC1 [MMV030666] | 0.122 | 0.627 | 0.494 | 0.333 | 352 | – | – | – | –
O=C(Nc1ccsc1C(=O)NC1CCCCC1)c1ccc(F)cc1 [MMV665939] | 1.22 | 0.726 | 1.04 | 2.1 | 1610 | – | – | – | –
O=C(Nc1ccccc1O)c1ccc(Oc2cccc(C(=O)Nc3ccccc3O)c2)cc1 [MMV665888] | 0.295 | 0.614 | 1.16 | – | 601 | – | – | – | –
O=C(NCC(CCCN1CCC(c2c[nH]c3ccccc23)CC1)c1ccccc1)Nc1ccc(Cl)c(Cl)c1 (stereo not drawn) [MMV029272] | 2.87 | 0.17 | 0.139 | 0.115 | 619 | – | – | – | –
COc1cc(-c2nc(-c3ccccc3)c(-c3ccccc3)[nH]2)ccc1OCCN(C)C [MMV027496] | 0.241 | 0.118 | 0.112 | 0.084 | 317 | – | – | – | –
CCCCCCCN(Cc1ccc(OC(C)(C)C(=O)OCC)cc1)C(=O)Nc1ccc(Cl)cc1OCC [MMV021735] | 0.054 | 0.383 | 0.459 | 0.543 | 223 | – | – | – | –
